From publication PMC11500415, “Chemical inhibition of stomatal differentiation by perturbation of the master-regulatory bHLH heterodimer via an ACT-Like domain” (Nature Communications, 2024) come the findings set out here.

In the test the target is T1, MUTE_ACTL (Arabidopsis thaliana, UniProt Q9M8K6).
T1 construct: MUTE-ACTL (114-202); made in house; host or cells: E. coli BL21
Kind of test: BLI direct binding. Also noted: species or system A. thaliana. The note with it: for binding to MUTE by BLI (in words): BLI (Supplementary Table 3); for Kd: MUTE_ACTL. An excerpt: A. thaliana SCRM (1-494), ΔNSPCH (98-364), MUTE (1-202), ΔNFAMA (190-414), MUTEΔC (1-114), MUTER133A_R134A, MUTEE162A_E163A, MUTER133A_R134A_E162A_E163A, SCRM-ACTL (405-494), MUTE-ACTL (114-202), SPCH-ACTL (285-364), FAMA-ACTL (306-414), MUTE_ACTLR133A_R134A, MUTE_ACTLE162A_E163A, MUTE_ACTLR133A_R134A_E162A_E163A were cloned into pGEX-4T-1 vector with an N-terminal GST tag and a thrombin cleavage sequence. For protein expression, the constructs were transformed into E. coli strain BL21. For each transformant, a single colony was selected and incubated in 10 ml LB liquid media. The overnight-incubated E. coli suspensions were transferred to 1 L LB medium and incubated at 37 °C for around 2 h until the OD600 reached 0.4–0.6. The isopropyl β-D-1-thiogalactopyranoside ([…] of final concentration) was added to the cultures and the strains were incubated at 22 °C for a further 18 h. GST-fused proteins were purified using glutathione agarose resin. The soluble portion of the cell lysate was loaded onto a GST-Sepharose column. Nonspecifically bound proteins were removed by washing the column with 20 mM Tris pH 8.0, 200 mM NaCl. The bound GST-fused protein was eluted with 10 mm glutathione and 20 mM Tris pH 8.0, 200 mM NaCl. The GST-fused proteins were exchanged with phosphate-buffered saline buffer, and then the solution was treated with 50 μg of thrombin for 10–12 h at 16 ^οC. The GST portion of the protein was cleaved during thrombin digestion, and then the whole solution was reloaded onto the glutathione S-transferase column to obtain pure protein. The purified proteins were further purified by gel filtration on a Superdex-200 (GE) column using fast protein liquid chromatography and phosphate buffer (pH 7.2) as the eluent. The purity of the protein was checked by SDS-PAGE. For detailed lists of oligo DNA and plasmid information, see Supplementary Tables 5, 6, respectively.
The binding affinities of SCRM to MUTE / MUTER133A_R134A / MUTEE162A_E163A / MUTER133A_R134A_E162A_E163A in presence and absence of Stomidazolone (3) and its analogues (AYSJ1059 (5) and AYSJ1061 (6)), and Stomidazolone / AYSJ1059 / AYSJ1061 interactions with GST-tagged SCRM, MUTE, SPCH, FAMA, MUTE ΔACTL, MUTE_ACTL, SCRM_ACTL, SPCH_ACTL and FAMA_ACTL, MUTER133A_134A, MUTEE162A_E163A, MUTER133A_R134A_E162A_E163A were measured using the Octet Red96 system (ForteBio, Pall Life Sciences) following the manufacturer’s protocols. The optical probes coated with anti-GST were first loaded with 500 nM GST tagged proteins before kinetic binding analyses. The experiment was performed in 96-well plates maintained at 30 °C. Each well was loaded with 200 μL reaction volume for the experiment. The binding buffer used in these experiments contained 1× PBS supplemented with 2% DMSO, 0.02% Tween20. […] There was no binding of the analytes to the unloaded probes as shown by the control wells. Binding kinetics to all seven concentrations of the analytes were measured simultaneously using default parameters on the instrument. The data were analyzed using the Octet data analysis software. The association and dissociation curves were fit with the 1:1 homogeneous ligand model. The kobs (observed rate constant) values were used to calculate Kd, with steady-state analysis of the direct binding. See Supplementary Table 3 for details.

[1] abbreviates: BLI steady state, read-out: KD (SS).

Read-outs that look alike come from different tables or passages of the source.

T1 sequence (Q9M8K6 114-202): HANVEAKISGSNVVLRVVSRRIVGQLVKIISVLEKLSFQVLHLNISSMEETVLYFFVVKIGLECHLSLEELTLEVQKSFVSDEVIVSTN

For the compound `Cc1ccc(C2(NS(=O)(=O)c3ccccc3)N=C(c3ccccc3)C(=O)N2S(=O)(=O)c2ccccc2)cc1` (stereo not drawn) [AYSJ1059], the “binding to MUTE by BLI (in words)” value is “substantially weak binding”. In addition, under setting [1], the Kd – broadly, the concentration at which binding is half-saturated – came out at 126 ± 13.5 µM. Further, the Kd (BLI, read-out: KD) came out at 123 ± 6.5 µM.

For the compound `O=C1C(c2ccccc2)=NC(NS(=O)(=O)c2ccccc2)(c2ccc(Br)cc2)N1S(=O)(=O)c1ccccc1` (stereo not drawn) [AYSJ1061], the “binding to MUTE by BLI (in words)” value is “substantially weak binding”. In addition, the Kd under setting [1] turned out to be 139 ± 9.5 µM. The Kd (BLI, read-out: KD) worked out at 135 ± 5.5 µM.
